Source: patent US11771673B2, “On site generated performic acid compositions for teat treatment” (ECOLAB USA INC., priority 2018, dated 2023)

Test: Accelerated stability of hydrogen peroxide premixes with different self-indicators under 40° C.
Assay type: physicochemical
Details: approximately 13 weeks
Experimental: The hydrogen peroxide premixes were prepared according to Table 10 with differing types of FD&C dyes. The compositions were stored in a 40° C. oven for approximately 13 weeks. Their stability, as evaluated by the presence of hydrogen peroxide, was compared and is depicted in Table 11.

In the case of `O=S(=O)([O-])c1ccc(N=Nc2c(O)ccc3cc(S(=O)(=O)[O-])ccc23)cc1.[Na+].[Na+]` [FD&C yellow 6], the “stability of dye in hydrogen peroxide premix” value is reported as “significantly more stable than FD&C yellow 5”.
